Consider one substance from patent publication US20190031857A1, “BLACK-COLORED POLYAMIDE COMPOSITION AND PRODUCTION AND USE THEREOF” (BASF SE, priority 2016, published 2019).

Data set [1] is described as follows: Solubility of Solvent Black 28 in solvents. In kind it is physicochemical. As for the experimental part:
The chromium complex dye b) used in accordance with the invention is available under the name Solvent Black 28 (CAS no.: 12237-23-9, C.I. Solvent Black 28). A commercially available product is Orasol Black 045 from BASF SE. […] Solubility at 20° C. in ethanol is about 10 g/L and in methyl ethyl ketone about 400 g/L.

Data set [2] can be described thus: Incorporation and coloring of the polymer by extrusion. The following applies: attempted bulk coloring of polyethylene, above 160° C. As for the experimental part: 98 parts polyethylene (Grade M80064 from Sabic) were premixed in a tumbling mixer with 2 parts Solvent Black 28 (Orasol Black 045 from BASF) for 10 minutes and extruded in a twin-shaft extruder having a diameter of 18 mm and an L/D ratio of 44 at barrel temperature 210° C. A significant odor developed from the extruder nozzle; the polymer strands had expanded in the foam mold. The production of plaques by means of injection molding machines was not possible.
99.9 parts polyamide PA6 (Ultramid B3S from BASF) were premixed in a tumbling mixer with 0.1 part Solvent Violet 13 (Orasol Blue 640 from BASF) for 10 minutes and then extruded and pelletized using a twin-shaft extruder having a diameter of 18 mm and an L/D ratio of 44 at barrel temperature 260° C. For this purpose, the natural-colored polyamide pellets were dried beforehand in a drying oven at 100° C. for 4 hours, such that the moisture content was below 0.1%. For this purpose, the moisture content was determined by means of a thermal balance.

For the substance Solvent Black 28, the Solubility in ethanol entry in data set [1] (20° C., ethanol) was “about 10 g/L”. In addition, in data set [1] (20° C., methyl ethyl ketone), the “Solubility in methyl ethyl ketone” value is listed as “about 400 g/L”. The Water solubility result in data set [1] (water) is on record as “almost water-insoluble”. The “thermal stability in bulk coloring of polyethylene” value in data set [2] was “entirely inadequate thermal stability”.
